Data: US7589089B2, “Inhibitors for GlyT-1” (Hoffmann-La Roche Inc., priority 2006, dated 2009)

The molecules below were run against T1, mGlyT-1b (Mus musculus, UniProt P28571) (assay: Glycine Uptake Inhibition Assay (mGlyT-1b)).
T1 construct: host or cells: Flp-in-CHO
T1 sequence (P28571 1-651 isoform P28571-2): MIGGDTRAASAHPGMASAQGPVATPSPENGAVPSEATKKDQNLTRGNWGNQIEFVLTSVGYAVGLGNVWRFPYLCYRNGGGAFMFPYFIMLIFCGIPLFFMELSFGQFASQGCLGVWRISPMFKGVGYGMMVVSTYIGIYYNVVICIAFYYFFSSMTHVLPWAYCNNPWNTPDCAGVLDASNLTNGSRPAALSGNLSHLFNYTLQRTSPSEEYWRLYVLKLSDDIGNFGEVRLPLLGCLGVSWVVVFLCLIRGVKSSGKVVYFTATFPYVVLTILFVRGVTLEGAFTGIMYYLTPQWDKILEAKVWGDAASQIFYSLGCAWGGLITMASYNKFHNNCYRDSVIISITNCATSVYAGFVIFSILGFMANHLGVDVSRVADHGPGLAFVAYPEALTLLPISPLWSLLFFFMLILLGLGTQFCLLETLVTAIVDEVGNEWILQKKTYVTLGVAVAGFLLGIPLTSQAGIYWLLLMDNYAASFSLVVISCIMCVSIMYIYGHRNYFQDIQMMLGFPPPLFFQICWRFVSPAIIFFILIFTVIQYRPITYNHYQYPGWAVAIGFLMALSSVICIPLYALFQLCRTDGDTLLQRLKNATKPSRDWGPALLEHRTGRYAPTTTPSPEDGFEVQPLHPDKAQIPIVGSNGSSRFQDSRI
Assay type: cell-based
Description: DMEM complete medium: Nutrient mixture F-12 (Gibco Life-technologies), fetal bovine serum (FBS) 5%, (Gibco life technologies), Penicillin/Streptomycin 1% (Gibco life technologies), Hygromycin 0.6 mg/ml (Gibco life technologies), Glutamine 1 mM Gibco life technologies)
Uptake buffer (UB): 150 mM NaCl, 10 mM Hepes-Tris, pH 7.4, 1 mM CaCl2, 2.5 mM KCl, 2.5 mM MgSO4, 10 mM (+) D-glucose.
Flp-in™-CHO (Invitrogen Cat n° R758-07) cells stably transfected with mGlyT1b cDNA.
Glycine Uptake Inhibition Assay (mGlyT-1b)
On day 1 mammalian cells, (Flp-in™-CHO), transfected with mGlyT-1b cDNA, were plated at the density of 40,000 cells/well in complete F-12 medium, without hygromycin in 96-well culture plates. On day 2, the medium was aspirated and the cells were washed twice with uptake buffer (UB). The cells were then incubated for 20 min at 22° C. with either (i) no potential competitor, (ii) 10 mM non-radioactive glycine, (iii) a concentration of a potential inhibitor. A range of concentrations of the potential inhibitor was used to generate data for calculating the concentration of inhibitor resulting in 50% of the effect (e.g. IC50, the concentration of the competitor inhibiting glycine uptake of 50%). A solution was then immediately added containing [^3H]-glycine 60 nM (11-16 Ci/mmol) and 25 μM non-radioactive glycine. The plates were incubated with gentle shaking and the reaction was stopped by aspiration of the mixture and washing (three times) with ice-cold UB. The cells were lysed with scintillation liquid, shaken 3 hours and the radioactivity in the cells was counted using a scintillation counter.

Row | SMILES | IC50 [nM]
1 | COc1ccc(C(=O)N(CC(=O)Nc2ccc(F)c(Cl)c2)c2ccccc2)cc1 [Example 108, N-[(3-Chloro-4-fluoro-phenylcarbamoyl)-methyl]-4-methoxy-N-phenyl-benzamide] | 182
2 | COc1ccc(C(=O)N(CC(=O)Nc2ccc(C)c(Cl)c2)c2ccccc2)cc1 [Example 110, N-[(3-Chloro-4-methyl-phenylcarbamoyl)-methyl]-4-methoxy-N-phenyl-benzamide] | 369
3 | O=C(CN(C(=O)c1cc2ccccc2s1)c1ccccc1)Nc1ccc(Cl)c(Cl)c1 [Example 113, Benzo[b]thiophene-2-carboxylic acid [(3,4-dichloro-phenylcarbamoyl)-methyl]-phenyl-amide] | 150
4 | O=C(CN(C(=O)c1ccc(OC(F)(F)F)cc1)c1ccccc1)Nc1ccc(Cl)c(Cl)c1 [Example 114, N-[(3,4-Dichloro-phenylcarbamoyl)-methyl]-N-phenyl-4-trifluoromethoxy-benzamide] | 91
5 | CN(C)c1ccc(C(=O)N(CC(=O)Nc2ccc(Cl)c(Cl)c2)c2ccccc2)cc1 [Example 116, N-[(3,4-Dichloro-phenylcarbamoyl)-methyl]-4-dimethylamino-N-phenyl-benzamide] | 191
6 | COc1ccc(C(=O)N(CC(=O)Nc2ccc(Cl)c(Cl)c2)c2cccc(Cl)c2)cc1 [Example 117, N-(3-Chloro-phenyl)-N-[(3,4-dichloro-phenylcarbamoyl)-methyl]-4-methoxy-benzamide] | 210

Second part, the molecule after the results:

Row | IC50 [nM] | SMILES
7 | 259 | O=C(CN(C(=O)COc1ccc(Cl)cc1)c1ccccc1)Nc1ccc(Cl)c(Cl)c1 [Example 118, 2-(4-Chloro-phenoxy)-N-[(3,4-dichloro-phenylcarbamoyl)-methyl]-N-phenyl-acetamide]
8 | 355 | O=C(CN(Cc1ccccc1F)C(=O)c1ccc(N2CCOCC2)nc1)Nc1cccc(Cl)c1 [Example 119, N-[(3-Chloro-phenylcarbamoyl)-methyl]-N-(2-fluoro-benzyl)-6-morpholin-4-yl-nicotinamide]
9 | 182 | O=C(CN(Cc1ccccc1F)C(=O)c1ccc(Cl)nc1)Nc1cccc(Cl)c1 [Example 120, 6-Chloro-N-[(3-chloro-phenylcarbamoyl)-methyl]-N-(2-fluoro-benzyl)-nicotinamide]
10 | 357 | COc1ccc(C(=O)N(CC(=O)Nc2ccc(Cl)c(Cl)c2)C2CCCC2)cc1 [Example 126, N-Cyclopentyl-N-[(3,4-dichloro-phenylcarbamoyl)-methyl]-4-methoxy-benzamide]
